One molecule from US11708318B2, “Polymorphic forms of RAD1901-2HCL” (Radius Pharmaceuticals, Inc., priority 2017, dated 2023) can be followed below.

Entries after “also recorded” stand apart in the source; their conditions may differ.

Format in all cases: physicochemical
Series [1] in a line: Storage at elevated temperature/humidity, analysed by XRPD. The protocol: Samples 1 and 2 were characterized by XRPD at various conditions. XRPD patterns were collected for the samples at ambient condition as the samples were provided; at variable temperature (VT-XRPD); at variable humidity (VH-XRPD); after the samples were exposed to 40° C./75% RH for 1 week and 25° C./97% RH for 1 week, respectively; and after a GVS measurement wherein the samples were exposed to 0-90% RH. Samples 1 and 2 were also characterized by ^1H NMR, TGA, DSC, KF, IC, GVS (exposed to 0-90% RH), PLM, SEM, and HPLC (Table 5).

Series [2] can be described thus: Solubility assessment of Sample 1 (majorly Form 1) in 24 solvent systems.
Series [3] is described as follows: Variable humidity XRPD (VH-XRPD). Conditions: ~95% RH, 24 hr. The method, then: Samples run under non-ambient conditions were prepared by gently packing into a cavity, cut into a silicon wafer to obtain a flat surface and mounted onto a humidity stage with an Ansyco controller and humidity sensor positioned directly next to the sample holder. The data were collected at 298.15 K with water temperature of 35.0° C., in an angular range of 3 to 31° 2θ, with a step size of 0.025° 2θ, a collection time of 2.0 sec/step, and a collection time at each % RH was 41 min 28 sec. X-Ray Powder Diffraction (XRPD) patterns were collected at variable humidity values from 0 to 95% RH, based upon the humidity behavior of each compound observed during GVS experiments (described herein). For each Variable Humidity X-Ray Powder Diffraction (VH-XRPD) experiment performed, the % RH values selected are provided alongside the relevant experimental result. Full tables of detailing the % RH value at each collection point and the associated delay time at each value are provided in Tables 10-12. To fully characterize the polymorphic behavior of Samples 1 and 2 at variable humidity, and to collect reference XRPD patterns for the ‘pure’ anhydrous Form 1 and Form 2 material, and ‘pure’ hydrated Form 3 material, Variable Humidity (VH) XRPD experiments were conducted on Samples 1 and 2. Initially, VH-XRPD experiments were conducted using Sample 1, and XRPD diffractograms were collected at selected humidity values, in line with those collected during GVS experiments (see FIGS. 6E-6F). XRPD diffractograms were collected initially at ambient RH, then collected over 24 hours at ˜95% RH and finally collected during desorption steps to 0% RH and over 10 hours at 0% RH (see FIG. 4C). […]

For `CCNCCc1ccc(CN(CC)c2cc(OC)ccc2[C@@H]2CCc3cc(O)ccc3C2)cc1.Cl.Cl` [Sample 1], the “XRPD after storage at 25° C./97% RH for 1 week” value in series [1] (25° C./97% RH, 1 week) is given as “Form 3”. Besides, the “Solid form on prolonged exposure to high RH (>90%)” value in series [1] (high RH (>90%), e.g. for 7 days) is “converted to the hydrate Form 3”. Moreover, in series [2] (alcohols, esters, hydrocarbon solvents), the “Solubility in alcohols, esters, and hydrocarbon solvents” value was “low solubility”. Also, the “Solubility in t-butanol/water (1:1)” value in series [2] (t-butanol/water (1:1)) was “high solubility”. In addition, the “VH-XRPD at ~95% RH over 24 hr” value in series [3] is listed as “slow conversion towards the hydrated state; also recorded: Form 3 over 24”.
